Test results taken from ChEMBL document CHEMBL3046266, “Synthesis of curcumin and ethylcurcumin bioconjugates as potential antitumor agents” (Med Chem Res, 2012).
pIC50: −log10 of the molar value. The source made the active and inactive calls. The rule behind the calls is not given here.

Tests used:
KB [1] = experiment: Cytotoxicity against Homo sapiens (human) KB cells up to 25 uM by neutral red staining; format: functional, cell-based
BT-549 [2] = experiment: Cytotoxicity against Homo sapiens (human) BT549 cells up to 25 uM by neutral red staining; format: functional, cell-based
[3] = target: T1, DNA topoisomerase 2-alpha (Homo sapiens, UniProt P11388); experiment: Inhibition of Homo sapiens (human) topoisomerase 2 assessed as decatenation of KDNA by agarose gel electrophoresis
[4] = target: T2, DNA topoisomerase 1 (Homo sapiens) (UniProt P11387); experiment: Inhibition of Homo sapiens (human) topoisomerase 1 assessed as relaxation of supercoiled DNA up to 25 uM by agarose gel electrophoresis
T2 sequence (whole entry): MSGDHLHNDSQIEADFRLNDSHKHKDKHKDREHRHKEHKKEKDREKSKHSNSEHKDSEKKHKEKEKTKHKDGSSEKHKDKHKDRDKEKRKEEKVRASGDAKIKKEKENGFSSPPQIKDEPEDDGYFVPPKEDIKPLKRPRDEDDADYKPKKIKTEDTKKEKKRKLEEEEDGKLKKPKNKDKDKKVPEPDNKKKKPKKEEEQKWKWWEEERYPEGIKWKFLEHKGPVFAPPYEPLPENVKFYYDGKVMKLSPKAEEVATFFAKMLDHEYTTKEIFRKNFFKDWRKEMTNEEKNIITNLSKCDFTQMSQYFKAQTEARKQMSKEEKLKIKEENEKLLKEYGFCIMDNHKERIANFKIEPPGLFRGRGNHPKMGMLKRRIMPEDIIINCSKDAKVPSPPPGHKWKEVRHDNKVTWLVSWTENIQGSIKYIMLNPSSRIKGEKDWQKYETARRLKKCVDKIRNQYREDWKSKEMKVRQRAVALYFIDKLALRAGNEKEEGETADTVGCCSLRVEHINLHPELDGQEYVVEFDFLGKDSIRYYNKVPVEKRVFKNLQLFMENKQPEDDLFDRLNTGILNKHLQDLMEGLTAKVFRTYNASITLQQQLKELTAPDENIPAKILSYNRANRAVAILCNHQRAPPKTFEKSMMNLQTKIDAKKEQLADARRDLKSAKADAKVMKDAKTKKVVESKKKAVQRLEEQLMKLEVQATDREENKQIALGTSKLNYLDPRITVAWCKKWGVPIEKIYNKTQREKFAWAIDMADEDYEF

Vero [5] = experiment: Cytotoxicity against Chlorocebus aethiops (African green monkey) Vero cells up to 25 uM by neutral red staining; format: cell-based; conditions: chlorocebus sabaeus
SK-MEL [6] = experiment: Cytotoxicity against Homo sapiens (human) SK-MEL cells by neutral red staining; format: functional, cell-based
LLC-PK1 [7] = experiment: Cytotoxicity against Sus scrofa (pig) LLC-PK1 cells up to 25 uM by neutral red staining; format: cell-based
[8] = target: T2, DNA topoisomerase 1 (Homo sapiens); experiment: Inhibition of Homo sapiens (human) topoisomerase 1 assessed as production of nicked DNA up to 25 uM by agarose gel electrophoresis
SK-OV-3 [9] = experiment: Cytotoxicity against Homo sapiens (human) SKOV3 cells by neutral red staining; format: functional, cell-based
LLC-PK1 [10] = experiment: Cytotoxicity against Sus scrofa (pig) LLC-PK1 cells by neutral red staining; format: cell-based
KB [11] = experiment: Cytotoxicity against Homo sapiens (human) KB cells by neutral red staining; format: functional, cell-based
Vero [12] = experiment: Cytotoxicity against Chlorocebus aethiops (African green monkey) Vero cells by neutral red staining; format: cell-based; conditions: chlorocebus sabaeus
BT-549 [13] = experiment: Cytotoxicity against Homo sapiens (human) BT549 cells by neutral red staining; format: functional, cell-based
SK-OV-3 [14] = experiment: Cytotoxicity against Homo sapiens (human) SKOV3 cells up to 25 uM by neutral red staining; format: functional, cell-based
SK-MEL [15] = experiment: Cytotoxicity against Homo sapiens (human) SK-MEL cells up to 25 uM by neutral red staining; format: functional, cell-based
[16] = target: T1, DNA topoisomerase 2-alpha; experiment: Inhibition of Homo sapiens (human) topoisomerase 2 assessed as decatenation of KDNA up to 25 uM by agarose gel electrophoresis

T1 sequence (P11388 whole entry): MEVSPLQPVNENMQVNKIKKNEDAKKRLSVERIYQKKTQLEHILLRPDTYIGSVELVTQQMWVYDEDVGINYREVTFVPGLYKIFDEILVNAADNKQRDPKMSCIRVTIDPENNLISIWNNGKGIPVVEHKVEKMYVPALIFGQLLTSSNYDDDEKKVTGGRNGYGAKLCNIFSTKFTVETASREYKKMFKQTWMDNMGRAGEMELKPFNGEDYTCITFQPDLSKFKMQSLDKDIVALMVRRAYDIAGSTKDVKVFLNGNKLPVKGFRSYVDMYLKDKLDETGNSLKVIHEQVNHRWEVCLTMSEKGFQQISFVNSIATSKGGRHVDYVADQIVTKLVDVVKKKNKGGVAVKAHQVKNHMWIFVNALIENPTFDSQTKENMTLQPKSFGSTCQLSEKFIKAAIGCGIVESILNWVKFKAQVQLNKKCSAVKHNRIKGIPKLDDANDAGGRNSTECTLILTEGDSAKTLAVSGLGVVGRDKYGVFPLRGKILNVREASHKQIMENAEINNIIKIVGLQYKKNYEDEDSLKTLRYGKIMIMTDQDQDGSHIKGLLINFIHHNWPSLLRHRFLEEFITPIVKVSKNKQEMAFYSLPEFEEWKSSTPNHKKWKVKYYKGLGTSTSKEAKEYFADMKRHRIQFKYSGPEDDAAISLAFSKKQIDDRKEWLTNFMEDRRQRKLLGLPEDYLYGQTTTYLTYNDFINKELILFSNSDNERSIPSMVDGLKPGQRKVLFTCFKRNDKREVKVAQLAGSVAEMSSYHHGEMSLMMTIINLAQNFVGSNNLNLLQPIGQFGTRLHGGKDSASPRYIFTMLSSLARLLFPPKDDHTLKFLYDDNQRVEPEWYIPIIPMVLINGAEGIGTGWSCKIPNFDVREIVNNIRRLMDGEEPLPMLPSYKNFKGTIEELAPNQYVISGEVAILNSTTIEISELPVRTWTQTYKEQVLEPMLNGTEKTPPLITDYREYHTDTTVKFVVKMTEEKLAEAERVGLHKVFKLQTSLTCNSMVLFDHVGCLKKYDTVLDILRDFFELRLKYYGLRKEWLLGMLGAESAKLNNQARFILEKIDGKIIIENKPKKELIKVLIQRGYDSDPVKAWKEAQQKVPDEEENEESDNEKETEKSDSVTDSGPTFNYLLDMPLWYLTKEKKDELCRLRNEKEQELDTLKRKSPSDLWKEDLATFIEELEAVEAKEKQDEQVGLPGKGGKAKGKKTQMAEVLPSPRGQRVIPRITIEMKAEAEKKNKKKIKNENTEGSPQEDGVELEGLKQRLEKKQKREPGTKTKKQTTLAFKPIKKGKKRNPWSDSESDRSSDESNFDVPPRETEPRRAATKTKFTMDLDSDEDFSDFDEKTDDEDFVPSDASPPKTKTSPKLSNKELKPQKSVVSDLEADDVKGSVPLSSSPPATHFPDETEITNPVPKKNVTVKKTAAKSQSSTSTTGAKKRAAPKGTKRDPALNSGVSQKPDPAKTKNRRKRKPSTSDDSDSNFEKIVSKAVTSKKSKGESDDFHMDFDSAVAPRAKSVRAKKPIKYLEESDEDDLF

SMILES	pIC50 [3]	inhibition [4]	inhibition [8]	inhibition [16]	Activity (KB [1])	Activity (BT-549 [2])	Activity (Vero [5])	pIC50 (SK-MEL [6])	Activity (LLC-PK1 [7])	pIC50 (SK-OV-3 [9])	pIC50 (LLC-PK1 [10])	pIC50 (KB [11])	pIC50 (Vero [12])	pIC50 (BT-549 [13])	Activity (SK-OV-3 [14])	Activity (SK-MEL [15])
COc1cc(/C=C/C(=O)CC(=O)/C=C/c2ccc(OC(=O)CNc3ccc(S(N)(=O)=O)cc3)c(OC)c2)ccc1OC(=O)CNc1ccc(S(N)(=O)=O)cc1	5.52	inactive	inactive	–	–	–	–	4.73	–	4.65	4.80	4.85	4.96	4.98	–	–
CCOc1cc(/C=C/C(=O)CC(=O)/C=C/c2ccc(OC(=O)CNCCCl)c(OCC)c2)ccc1OC(=O)CNCCCl	5.39	inactive	inactive	–	–	–	–	4.88	–	–	5.17	4.90	4.96	5.05	inactive	–
COc1cc(/C=C/C(=O)CC(=O)/C=C/c2ccc(OC(=O)CN(CCCl)CCCl)c(OC)c2)ccc1OC(=O)CN(CCCl)CCCl	5.30	inactive	inactive	–	–	–	–	5.15	–	–	4.70	4.71	< 4.60	5.17	inactive	–
CCOc1cc(/C=C/C(=O)CC(=O)/C=C/c2ccc(OC(=O)CN(CCCl)CCCl)c(OCC)c2)ccc1OC(=O)CN(CCCl)CCCl	5.47	inactive	inactive	–	–	–	–	4.84	–	4.87	4.86	4.67	4.82	4.96	–	–
COc1cccc2c1C(=O)c1c(O)c3c(c(O)c1C2=O)C[C@@](O)(C(=O)CO)C[C@@H]3O[C@H]1C[C@H](N)[C@H](O)[C@H](C)O1 [DOXORUBICIN]	–	–	–	–	–	–	–	6.26	–	6.10	6.12	> 6.26	< 5.30	> 6.26	–	–
COc1cc(/C=C/C(=O)CC(=O)/C=C/c2ccc(OC(=O)CCNCCCl)c(OC)c2)ccc1OC(=O)CCNCCCl	5.54	inactive	inactive	–	–	–	–	4.82	–	4.62	4.77	4.94	4.90	4.96	–	–

More lines, main results first:

pIC50 [3]	inhibition [4]	inhibition [8]	inhibition [16]	SMILES	Activity (KB [1])	Activity (BT-549 [2])	Activity (Vero [5])	pIC50 (SK-MEL [6])	Activity (LLC-PK1 [7])	pIC50 (SK-OV-3 [9])	pIC50 (LLC-PK1 [10])	pIC50 (KB [11])	pIC50 (Vero [12])	pIC50 (BT-549 [13])	Activity (SK-OV-3 [14])	Activity (SK-MEL [15])
4.92	inactive	inactive	–	CCOc1cc(/C=C/C(=O)CC(=O)/C=C/c2ccc(OC(=O)CNc3nc4ccc(OC)cc4s3)c(OCC)c2)ccc1OC(=O)CNc1nc2ccc(OC)cc2s1	inactive	inactive	Non-toxic	5.32	Non-toxic	5.55	–	–	–	–	–	–
4.82	inactive	inactive	–	COc1cc(/C=C/C(=O)CC(=O)/C=C/c2ccc(OC(=O)CNc3nnc(C)s3)c(OC)c2)ccc1OC(=O)CNc1nnc(C)s1	–	–	–	5.12	–	–	4.65	4.65	4.64	5.06	inactive	–
5.00	inactive	inactive	–	CCOc1cc(/C=C/C(=O)CC(=O)/C=C/c2ccc(OC(=O)CNCCN(CC)CC)c(OCC)c2)ccc1OC(=O)CNCCN(CC)CC	–	–	–	4.94	–	4.83	5.24	4.94	5.30	5.00	–	–
5.52	inactive	inactive	–	CCN(CC)CCNCC(=O)Oc1ccc(/C=C/C(=O)CC(=O)/C=C/c2ccc(OC(=O)CNCCN(CC)CC)c(OC)c2)cc1OC	–	–	–	5.07	Non-toxic	4.81	–	4.62	4.71	4.79	–	–
–	inactive	inactive	inactive	CCOc1cc(/C=C/C(=O)CC(=O)/C=C/c2ccc(OC(=O)CCNCCN(C)C)c(OCC)c2)ccc1OC(=O)CCNCCN(C)C	inactive	inactive	Non-toxic	–	Non-toxic	–	–	–	–	–	inactive	inactive
5.52	inactive	inactive	–	COc1cc(/C=C/C(=O)CC(=O)/C=C/c2ccc(OC(=O)CCNc3nnc(C)s3)c(OC)c2)ccc1OC(=O)CCNc1nnc(C)s1	–	–	–	5.12	–	–	4.81	4.79	4.82	5.37	inactive	–
4.80	inactive	inactive	–	COc1cc(/C=C/C(=O)CC(=O)/C=C/c2ccc(OC(=O)CNCCN(C)C)c(OC)c2)ccc1OC(=O)CNCCN(C)C	inactive	–	Non-toxic	4.82	Non-toxic	4.65	–	–	–	4.70	–	–
5.57	inactive	inactive	–	CCOc1cc(/C=C/C(=O)CC(=O)/C=C/c2ccc(OC(=O)CNc3nnc(C)s3)c(OCC)c2)ccc1OC(=O)CNc1nnc(C)s1	–	–	–	4.90	–	4.80	4.89	4.94	4.94	4.92	–	–
